Measurements reported in ChEMBL document CHEMBL1201861, “Genomics of Drug Sensitity in Cancer screening data, Wellcome Trust Sanger Institute”.
Each block holds one compound with its values, some of them ahead of it.

Tests used:
RCM-1 = test: cells; type: functional, cell-based, Homo sapiens; conditions: Homo sapiens, RCM-1;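 further: growth inhibition of the RCM-1 line, determined with a cell viability readout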
Description: SANGER: Inhibition of human RCM-1 cell growth in a cell viability assay.

NCI-H810 = test: cells; type: functional, cell-based, Homo sapiens; conditions: Homo sapiens, NCI-H810;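 further: IC50 reflects inhibition of cancer cell line growth, read out with a cell viability assay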
Description: SANGER: Inhibition of human NCI-H810 cell growth in a cell viability assay.

CAL-62 = test: cells; type: functional, cell-based, Homo sapiens; conditions: Homo sapiens, CAL-62;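 further: growth inhibition of CAL-62 cells, read out with a cell viability assay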
Description: SANGER: Inhibition of human CAL-62 cell growth in a cell viability assay.

NCI-H2009 = test: cells; type: functional, cell-based, Homo sapiens; conditions: Homo sapiens, NCI-H2009;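 further: cell viability assay measuring inhibition of NCI-H2009 cell growth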
Description: SANGER: Inhibition of human NCI-H2009 cell growth in a cell viability assay.

SW1710 = test: cells; type: functional, cell-based, Homo sapiens; conditions: Homo sapiens, SW1710;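 further: growth inhibition of SW1710 cells, determined with a cell viability assay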
Description: SANGER: Inhibition of human SW1710 cell growth in a cell viability assay.

A-375 = test: cells; type: functional, cell-based, Homo sapiens; conditions: Homo sapiens, A-375;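 further: growth inhibition of A375 cells, read out with a cell viability assay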
Description: SANGER: Inhibition of human A375 cell growth in a cell viability assay.

NY = test: cells; type: functional, cell-based, Homo sapiens; conditions: Homo sapiens, NY
Description: SANGER: Inhibition of human NY cell growth in a cell viability assay.

SW1417 = test: cells; type: functional, cell-based, Homo sapiens; conditions: Homo sapiens, SW1417;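 further: growth inhibition of human SW1417 cells, read out with a cell viability assay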
Description: SANGER: Inhibition of human SW1417 cell growth in a cell viability assay.

CaR-1 = test: cells; type: functional, cell-based, Homo sapiens; conditions: Homo sapiens, CaR-1;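 further: growth inhibition of human CaR-1 cancer cells, read out with a cell viability assay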
Description: SANGER: Inhibition of human CaR-1 cell growth in a cell viability assay.

LU-99A = test: cells; type: functional, cell-based, Homo sapiens; conditions: Homo sapiens, LU-99A;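 further: growth inhibition of LU-99A cells, read out with a cell viability assay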
Description: SANGER: Inhibition of human LU-99A cell growth in a cell viability assay.

HTC-C3 = test: cells; type: functional, cell-based, Homo sapiens; conditions: Homo sapiens, HTC-C3;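 further: inhibition of cell growth, read out with a cell viability assay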
Description: SANGER: Inhibition of human HTC-C3 cell growth in a cell viability assay.

SK-MEL-24 = test: cells; type: functional, cell-based, Homo sapiens; conditions: Homo sapiens, SK-MEL-24;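 further: growth inhibition read out by a cell viability assay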
Description: SANGER: Inhibition of human SK-MEL-24 cell growth in a cell viability assay.

SW1088 = test: cells; type: functional, cell-based, Homo sapiens; conditions: Homo sapiens, SW1088;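 further: growth inhibition of human SW1088 cells, read out by a cell viability assay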
Description: SANGER: Inhibition of human SW1088 cell growth in a cell viability assay.

MDA-MB-175-VII = test: cells; type: functional, cell-based, Homo sapiens; conditions: Homo sapiens, MDA-MB-175-VII
HT1197 = test: cells; type: functional, cell-based, Homo sapiens, HT-1197; conditions: Homo sapiens, HT1197
Description: SANGER: Inhibition of human HT-1197 cell growth in a cell viability assay.

FTC-133 = test: cells; type: functional, cell-based, Homo sapiens; conditions: Homo sapiens, FTC-133
MDA-MB-453 = test: cells; type: functional, cell-based, Homo sapiens; conditions: Homo sapiens, MDA-MB-453
Description: SANGER: Inhibition of human MDA-MB-453 cell growth in a cell viability assay.

BHT-101 = test: cells; type: functional, cell-based, Homo sapiens; conditions: Homo sapiens, BHT-101
Description: SANGER: Inhibition of human BHT-101 cell growth in a cell viability assay.

H4 = test: cells; type: functional, cell-based, Homo sapiens; conditions: Homo sapiens, H4
Description: SANGER: Inhibition of human H4 cell growth in a cell viability assay.

C3A = test: cells; type: functional, cell-based, Homo sapiens; conditions: Homo sapiens, C3A;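 further: growth inhibition of C3A human cells, quantified with a cell viability readout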
Description: SANGER: Inhibition of human C3A cell growth in a cell viability assay.

WM-115 = test: cells; type: functional, cell-based, Homo sapiens; conditions: Homo sapiens, WM-115
Description: SANGER: Inhibition of human WM-115 cell growth in a cell viability assay.

SW48 = test: cells; type: functional, cell-based, Homo sapiens; conditions: Homo sapiens, SW48;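 further: growth inhibition of SW48 cells, read out with a cell viability assay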
Description: SANGER: Inhibition of human SW48 cell growth in a cell viability assay.

HT55 = test: cells; type: functional, cell-based, Homo sapiens; conditions: Homo sapiens, HT55;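 further: cell viability readout measuring growth inhibition of human HT55 cells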
Description: SANGER: Inhibition of human HT55 cell growth in a cell viability assay.

DU-145 = test: cells; type: functional, cell-based, Homo sapiens; conditions: Homo sapiens, DU-145
Description: SANGER: Inhibition of human DU-145 cell growth in a cell viability assay.

HO-1-N-1 = test: cells; type: functional, cell-based, Homo sapiens; conditions: Homo sapiens, HO-1-N-1;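 further: growth inhibition of human HO-1-N-1 cells, read out with a cell viability assay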
Description: SANGER: Inhibition of human HO-1-N-1 cell growth in a cell viability assay.

KYSE-180 = test: cells; type: functional, cell-based, Homo sapiens; conditions: Homo sapiens, KYSE-180;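 further: growth inhibition of KYSE-180 cells, read out with a cell viability assay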
Description: SANGER: Inhibition of human KYSE-180 cell growth in a cell viability assay.

Capan-2 = test: cells; type: functional, cell-based, Homo sapiens; conditions: Homo sapiens, Capan-2;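 further: Capan-2 cell growth inhibition, read out with a viability assay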
Description: SANGER: Inhibition of human Capan-2 cell growth in a cell viability assay.

CAMA-1 = test: cells; type: functional, cell-based, Homo sapiens; conditions: Homo sapiens, CAMA-1;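 further: growth inhibition of CAMA-1 cells, read out with a cell viability assay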
Description: SANGER: Inhibition of human CAMA-1 cell growth in a cell viability assay.

HT-1080 = test: cells; type: functional, cell-based, Homo sapiens; conditions: Homo sapiens, HT-1080
Description: SANGER: Inhibition of human HT-1080 cell growth in a cell viability assay.

VMRC-RCZ = test: cells; type: functional, cell-based, Homo sapiens; conditions: Homo sapiens, VMRC-RCZ
Description: SANGER: Inhibition of human VMRC-RCZ cell growth in a cell viability assay.

DoTc2-4510 = test: cells; type: functional, cell-based, Homo sapiens; conditions: Homo sapiens, DoTc2-4510
SNU-387 = test: cells; type: functional, cell-based, Homo sapiens; conditions: Homo sapiens, SNU-387
Description: SANGER: Inhibition of human SNU-387 cell growth in a cell viability assay.

G-401 = test: cells; type: functional, cell-based, Homo sapiens; conditions: Homo sapiens, G-401
Description: SANGER: Inhibition of human G-401 cell growth in a cell viability assay.

Ca-Ski = test: cells; type: functional, cell-based, Homo sapiens; conditions: Homo sapiens, Ca-Ski;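 further: cell viability assay measuring inhibition of Ca-Ski cell growth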
Description: SANGER: Inhibition of human Ca-Ski cell growth in a cell viability assay.

SUP-T1 = test: cells; type: functional, cell-based, Homo sapiens; conditions: Homo sapiens, SUP-T1;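 further: growth inhibition of human SUP-T1 cells, read out as cell viability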
Description: SANGER: Inhibition of human SUP-T1 cell growth in a cell viability assay.

CHP-126 = test: cells; type: functional, cell-based, Homo sapiens; conditions: Homo sapiens, CHP-126
Description: SANGER: Inhibition of human CHP-126 cell growth in a cell viability assay.

DMS-153 = test: cells; type: functional, cell-based, Homo sapiens; conditions: Homo sapiens, DMS-153
Description: SANGER: Inhibition of human DMS-153 cell growth in a cell viability assay.

BL-70 = test: SANGER: Inhibition of human BL-70 cell growth in a cell viability assay.; type: functional, cell-based; conditions: Homo sapiens, BL-70
THP-1 = test: cells; type: functional, cell-based, Homo sapiens; conditions: Homo sapiens, THP-1;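 further: growth inhibition of THP-1 cells, read out via a cell viability assay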
Description: SANGER: Inhibition of human THP-1 cell growth in a cell viability assay.

MRK-nu-1 = test: cells; type: functional, cell-based, Homo sapiens; conditions: Homo sapiens, MRK-nu-1;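 further: cell viability assay measuring growth suppression of human MRK-nu-1 cells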
Description: SANGER: Inhibition of human MRK-nu-1 cell growth in a cell viability assay.

SCLC-21H = test: cells; type: functional, cell-based, Homo sapiens; conditions: Homo sapiens, SCLC-21H;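 further: growth inhibition of cultured human SCLC-21H cells, read out with a cell viability assay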
Description: SANGER: Inhibition of human SCLC-21H cell growth in a cell viability assay.

LP-1 = test: cells; type: functional, cell-based, Homo sapiens; conditions: Homo sapiens, LP-1;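 further: growth inhibition of human LP-1 cells, with the read-out taken from a cell viability assay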
Description: SANGER: Inhibition of human LP-1 cell growth in a cell viability assay.

SNU-16 = test: cells; type: functional, cell-based, Homo sapiens; conditions: Homo sapiens, SNU-16;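 further: growth inhibition of human SNU-16 cells, determined with a cell viability readout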
Description: SANGER: Inhibition of human NCI-SNU-16 cell growth in a cell viability assay.

NCI-H524 = test: cells; type: functional, cell-based, Homo sapiens; conditions: Homo sapiens, NCI-H524;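 further: growth inhibition of human NCI-H524 cells, read out through a cell viability assay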
Description: SANGER: Inhibition of human NCI-H524 cell growth in a cell viability assay.

NCI-H748 = test: cells; type: functional, cell-based, Homo sapiens; conditions: Homo sapiens, NCI-H748;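 further: growth inhibition of NCI-H748 cells, measured by a cell viability assay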
Description: SANGER: Inhibition of human NCI-H748 cell growth in a cell viability assay.

LC-1F = test: cells; type: functional, cell-based, Homo sapiens; conditions: Homo sapiens, LC-1F;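 further: growth inhibition of human LC-1F cells, read out with a cell viability assay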
Description: SANGER: Inhibition of human LC-1F cell growth in a cell viability assay.

L-540 = test: cells; type: functional, cell-based, Homo sapiens; conditions: Homo sapiens, L-540;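 further: growth inhibition of the human L-540 cell line, read out with a viability assay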
Description: SANGER: Inhibition of human L-540 cell growth in a cell viability assay.

MC-CAR = test: cells; type: functional, cell-based, Homo sapiens; conditions: Homo sapiens, MC-CAR;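 further: growth inhibition of the human MC-CAR cell line, read out by a cell viability assay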
Description: SANGER: Inhibition of human MC-CAR cell growth in a cell viability assay.

LU-165 = test: cells; type: functional, cell-based, Homo sapiens; conditions: Homo sapiens, LU-165
Description: SANGER: Inhibition of human LU-165 cell growth in a cell viability assay.

IC50 (RCM-1): 3.39 µM
IC50 (NCI-H810): 0.666 µM
IC50 (CAL-62): 0.308 µM
IC50 (NCI-H2009): 0.245 µM
IC50 (SW1710): 0.388 µM
IC50 (A-375): 0.0888 µM
IC50 (NY): 0.178 µM
IC50 (SW1417): 1.91 µM
IC50 (CaR-1): 5.93 µM
IC50 (LU-99A): 0.274 µM
IC50 (HTC-C3): 1.58 µM
IC50 (SK-MEL-24): 0.41 µM
IC50 (SW1088): 0.455 µM
IC50 (MDA-MB-175-VII): 0.451 µM
IC50 (HT1197): 5.95 µM
IC50 (FTC-133): 0.607 µM
IC50 (MDA-MB-453): 0.152 µM
IC50 (BHT-101): 0.0218 µM
IC50 (H4): 0.408 µM
IC50 (C3A): 1.82 µM
IC50 (WM-115): 1.21 µM
IC50 (SW48): 0.238 µM
IC50 (HT55): 0.651 µM
IC50 (DU-145): 0.0521 µM
IC50 (HO-1-N-1): 1.42 µM
IC50 (KYSE-180): 0.185 µM
IC50 (Capan-2): 6.04 µM
IC50 (CAMA-1): 0.661 µM
IC50 (HT-1080): 0.256 µM
IC50 (VMRC-RCZ): 7.75 µM
IC50 (DoTc2-4510): 1.48 µM
IC50 (SNU-387): 0.248 µM
IC50 (G-401): 0.46 µM
Compound: CC(C)c1ccccc1Cc1cc(C(=O)Nc2ccc(S(=O)(=O)c3ccccc3C(C)(C)C)cc2)c(O)c(O)c1O

Compound: CC(C)CCN1c2nc(Nc3cc(F)c(O)c(F)c3)ncc2N(C)C(=O)C1C (configuration not stated)
IC50 (RCM-1): > 5 µM
IC50 (NCI-H810): 3.22 µM
IC50 (Ca-Ski): 3.48 µM
IC50 (CAL-62): 0.882 µM
IC50 (NCI-H2009): > 5 µM
IC50 (SW1710): 2.31 µM
IC50 (A-375): 4.05 µM
IC50 (NY): > 5 µM
IC50 (SW1417): > 5 µM
IC50 (CaR-1): > 5 µM
IC50 (LU-99A): > 5 µM
IC50 (HTC-C3): > 5 µM
IC50 (SK-MEL-24): > 5 µM
IC50 (SW1088): > 5 µM
IC50 (MDA-MB-175-VII): > 5 µM
IC50 (HT1197): > 5 µM
IC50 (FTC-133): > 5 µM
IC50 (MDA-MB-453): > 5 µM
IC50 (BHT-101): 4.11 µM
IC50 (H4): 2.48 µM
IC50 (C3A): > 5 µM
IC50 (WM-115): > 5 µM
IC50 (SW48): 3.43 µM
IC50 (HT55): > 5 µM
IC50 (DU-145): 2.11 µM
IC50 (HO-1-N-1): 3.8 µM
IC50 (KYSE-180): > 5 µM
IC50 (Capan-2): > 5 µM
IC50 (CAMA-1): > 5 µM
IC50 (HT-1080): > 5 µM
IC50 (VMRC-RCZ): > 5 µM
IC50 (DoTc2-4510): > 5 µM
IC50 (SNU-387): > 5 µM
IC50 (G-401): > 5 µM

Compound: COc1cc2ncn(-c3cc(OCc4ccccc4S(C)(=O)=O)c(C#N)s3)c2cc1OC [GSK-319347A]
IC50 (SUP-T1): > 5 µM
IC50 (CHP-126): > 5 µM
IC50 (DMS-153): > 5 µM
IC50 (BL-70): > 5 µM
IC50 (THP-1): > 5 µM
IC50 (MRK-nu-1): > 5 µM
IC50 (SCLC-21H): > 5 µM
IC50 (LP-1): > 5 µM
IC50 (SNU-16): > 5 µM
IC50 (NCI-H524): > 5 µM
IC50 (NCI-H748): > 5 µM
IC50 (LC-1F): > 5 µM
IC50 (L-540): > 5 µM
IC50 (MC-CAR): > 5 µM
IC50 (LU-165): > 5 µM

Compound: COc1cc2ncn(-c3cc(OCc4ccccc4C(F)(F)F)c(C(N)=O)s3)c2cc1OC [GW843682X]
IC50 (SUP-T1): > 0.256 µM
IC50 (CHP-126): > 0.256 µM
IC50 (DMS-153): > 0.256 µM
IC50 (BL-70): 0.00855 µM
IC50 (THP-1): > 0.256 µM
IC50 (MRK-nu-1): 0.0301 µM
IC50 (SCLC-21H): 0.0902 µM
IC50 (LP-1): 0.0625 µM
IC50 (SNU-16): 0.0205 µM
IC50 (NCI-H524): 0.0654 µM
IC50 (NCI-H748): > 0.256 µM
IC50 (LC-1F): > 0.256 µM
IC50 (L-540): 0.121 µM
IC50 (MC-CAR): 0.0761 µM
IC50 (LU-165): > 0.256 µM
